# Measurements from PubChem BioAssay (NCI).
#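 Values below derive from 48-hour exposures of cells grown in 96-well plates, with endpoints linearly interpolated between the two concentrations bracketing the appropriate inhibition level. TGI is the concentration that stops growth completely.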
# Experiments:
# Assay in all cases: NCI tumour cell line growth inhibition, 48 h
# EKVX NSCLC = system: EKVX NSCLC
# SK-MEL-2 melanoma = system: SK-MEL-2 melanoma
# XF 498 CNS = system: XF 498 CNS
# NCI-H23 lung = system: NCI-H23 lung
# SK-MEL-28 melanoma = system: SK-MEL-28 melanoma
# NCI-H226 lung = system: NCI-H226 lung
# MOLT-4 leukemia = system: MOLT-4 leukemia
# OVCAR-4 ovarian = system: OVCAR-4 ovarian
# KM20L2 colon = system: KM20L2 colon
# RPMI-8226 leukemia = system: RPMI-8226 leukemia
# SK-OV-3 ovarian = system: SK-OV-3 ovarian
# SF-268 CNS = system: SF-268 CNS
# ACHN renal = system: ACHN renal
# TK-10 renal = system: TK-10 renal
# COLO 205 colon = system: COLO 205 colon
# HCT-15 colon = system: HCT-15 colon
# LXFL 529 NSCLC = system: LXFL 529 NSCLC
# UO-31 renal = system: UO-31 renal
# UACC-62 melanoma = system: UACC-62 melanoma
# HL-60(TB) leukemia = system: HL-60(TB) leukemia
# DMS 114 small cell lung = system: DMS 114 small cell lung
# CCRF-CEM leukemia = system: CCRF-CEM leukemia
# KM12 colon = system: KM12 colon
# OVCAR-8 ovarian = system: OVCAR-8 ovarian
# OVCAR-3 ovarian = system: OVCAR-3 ovarian
# SN12C renal = system: SN12C renal
# IGROV1 ovarian = system: IGROV1 ovarian
# DMS 273 small cell lung = system: DMS 273 small cell lung
# SNB-75 CNS = system: SNB-75 CNS
# HOP-18 NSCLC = system: HOP-18 NSCLC
# A549 NSCLC = system: A549 NSCLC
# SNB-19 CNS = system: SNB-19 CNS
# NCI-H460 lung = system: NCI-H460 lung
# SK-MEL-5 melanoma = system: SK-MEL-5 melanoma
# SF-539 CNS = system: SF-539 CNS
# MALME-3M melanoma = system: MALME-3M melanoma
# K-562 leukemia = system: K-562 leukemia
# HCT-116 colon = system: HCT-116 colon
# LOX IMVI melanoma = system: LOX IMVI melanoma
# M19-MEL melanoma = system: M19-MEL melanoma
# M14 melanoma = system: M14 melanoma
# U251 CNS = system: U251 CNS
# DLD-1 colon = system: DLD-1 colon
# SF-295 CNS = system: SF-295 CNS
# OVCAR-5 ovarian = system: OVCAR-5 ovarian
# RXF 393 renal = system: RXF 393 renal
# SW-620 colon = system: SW-620 colon
# 786-0 renal = system: 786-0 renal
# NCI-H522 lung = system: NCI-H522 lung
# UACC-257 melanoma = system: UACC-257 melanoma
# HOP-62 NSCLC = system: HOP-62 NSCLC
# HCC-2998 colon = system: HCC-2998 colon
# HOP-92 NSCLC = system: HOP-92 NSCLC
# SR leukemia = system: SR leukemia
# HT29 colon = system: HT29 colon
# SNB-78 CNS = system: SNB-78 CNS
# A498 renal = system: A498 renal
# CAKI-1 renal = system: CAKI-1 renal
# RXF-631 renal = system: RXF-631 renal
structure (smiles),measurement,setting,value
CC12OC(=O)C(C#N)C1(C)C1C(=O)CCCC12 (stereo not drawn),TGI,EKVX NSCLC,> 100 µM
same,TGI,SK-MEL-2 melanoma,> 100 µM
same,TGI,XF 498 CNS,> 100 µM
same,TGI,NCI-H23 lung,> 100 µM
same,TGI,SK-MEL-28 melanoma,> 100 µM
same,TGI,NCI-H226 lung,> 100 µM
same,TGI,MOLT-4 leukemia,> 100 µM
same,TGI,OVCAR-4 ovarian,> 100 µM
same,TGI,KM20L2 colon,> 100 µM
same,TGI,RPMI-8226 leukemia,> 100 µM
same,TGI,SK-OV-3 ovarian,> 100 µM
same,TGI,SF-268 CNS,> 100 µM
same,TGI,ACHN renal,> 100 µM
same,TGI,TK-10 renal,> 100 µM
same,TGI,COLO 205 colon,> 100 µM
same,TGI,HCT-15 colon,> 100 µM
same,TGI,LXFL 529 NSCLC,> 100 µM
same,TGI,UO-31 renal,> 100 µM
same,TGI,UACC-62 melanoma,> 100 µM
same,TGI,HL-60(TB) leukemia,> 100 µM
same,TGI,DMS 114 small cell lung,> 100 µM
same,TGI,CCRF-CEM leukemia,> 100 µM
same,TGI,KM12 colon,> 100 µM
same,TGI,OVCAR-8 ovarian,> 100 µM
same,TGI,OVCAR-3 ovarian,> 100 µM
same,TGI,SN12C renal,> 100 µM
same,TGI,IGROV1 ovarian,> 100 µM
same,TGI,DMS 273 small cell lung,> 100 µM
same,TGI,SNB-75 CNS,> 100 µM
same,TGI,HOP-18 NSCLC,> 100 µM
same,TGI,A549 NSCLC,> 100 µM
same,TGI,SNB-19 CNS,> 100 µM
same,TGI,NCI-H460 lung,> 100 µM
same,TGI,SK-MEL-5 melanoma,> 100 µM
same,TGI,SF-539 CNS,> 100 µM
same,TGI,MALME-3M melanoma,> 100 µM
same,TGI,K-562 leukemia,> 100 µM
same,TGI,HCT-116 colon,> 100 µM
same,TGI,LOX IMVI melanoma,> 100 µM
same,TGI,M19-MEL melanoma,> 100 µM
same,TGI,M14 melanoma,> 100 µM
same,TGI,U251 CNS,> 100 µM
same,TGI,DLD-1 colon,> 100 µM
same,TGI,SF-295 CNS,> 100 µM
same,TGI,OVCAR-5 ovarian,> 100 µM
same,TGI,RXF 393 renal,> 100 µM
same,TGI,SW-620 colon,> 100 µM
same,TGI,786-0 renal,> 100 µM
O=C(c1ccccc1)C1(Br)S(=O)(=O)OCCOS1(=O)=O,TGI,EKVX NSCLC,> 100 µM
same,TGI,SK-MEL-2 melanoma,> 100 µM
same,TGI,XF 498 CNS,> 100 µM
same,TGI,NCI-H23 lung,> 100 µM
same,TGI,SK-MEL-28 melanoma,> 100 µM
same,TGI,NCI-H522 lung,> 100 µM
same,TGI,NCI-H226 lung,> 100 µM
same,TGI,MOLT-4 leukemia,> 100 µM
same,TGI,OVCAR-4 ovarian,> 100 µM
same,TGI,KM20L2 colon,> 100 µM
same,TGI,RPMI-8226 leukemia,> 100 µM
same,TGI,SK-OV-3 ovarian,> 100 µM
same,TGI,SF-268 CNS,> 100 µM
same,TGI,ACHN renal,> 100 µM
same,TGI,TK-10 renal,> 100 µM
same,TGI,COLO 205 colon,> 100 µM
same,TGI,HCT-15 colon,> 100 µM
same,TGI,LXFL 529 NSCLC,> 100 µM
same,TGI,UO-31 renal,> 100 µM
same,TGI,UACC-62 melanoma,> 100 µM
same,TGI,HL-60(TB) leukemia,> 100 µM
same,TGI,DMS 114 small cell lung,> 100 µM
same,TGI,CCRF-CEM leukemia,> 100 µM
same,TGI,OVCAR-8 ovarian,> 100 µM
same,TGI,UACC-257 melanoma,> 100 µM
same,TGI,OVCAR-3 ovarian,> 100 µM
same,TGI,SN12C renal,> 100 µM
same,TGI,HOP-62 NSCLC,> 100 µM
same,TGI,IGROV1 ovarian,> 100 µM
same,TGI,DMS 273 small cell lung,> 100 µM
same,TGI,SNB-75 CNS,> 100 µM
same,TGI,HCC-2998 colon,> 100 µM
same,TGI,A549 NSCLC,> 100 µM
same,TGI,SNB-19 CNS,> 100 µM
same,TGI,NCI-H460 lung,> 100 µM
same,TGI,SK-MEL-5 melanoma,> 100 µM
same,TGI,SF-539 CNS,> 100 µM
same,TGI,HOP-92 NSCLC,> 100 µM
same,TGI,SR leukemia,> 100 µM
same,TGI,HT29 colon,> 100 µM
same,TGI,MALME-3M melanoma,> 100 µM
same,TGI,K-562 leukemia,> 100 µM
same,TGI,HCT-116 colon,> 100 µM
same,TGI,LOX IMVI melanoma,> 100 µM
same,TGI,SNB-78 CNS,> 100 µM
same,TGI,M19-MEL melanoma,> 100 µM
same,TGI,M14 melanoma,> 100 µM
same,TGI,U251 CNS,> 100 µM
same,TGI,DLD-1 colon,> 100 µM
same,TGI,A498 renal,> 100 µM
same,TGI,SF-295 CNS,> 100 µM
same,TGI,OVCAR-5 ovarian,> 100 µM
same,TGI,RXF 393 renal,> 100 µM
same,TGI,SW-620 colon,> 100 µM
same,TGI,786-0 renal,> 100 µM
O=C1NC(=O)C2C(=O)NC(=O)C1C2Cc1ccco1 (stereo not drawn),TGI,EKVX NSCLC,> 100 µM
same,TGI,SK-MEL-2 melanoma,> 100 µM
same,TGI,XF 498 CNS,> 100 µM
same,TGI,NCI-H23 lung,> 100 µM
same,TGI,SK-MEL-28 melanoma,> 100 µM
same,TGI,NCI-H522 lung,> 100 µM
same,TGI,NCI-H226 lung,> 100 µM
same,TGI,MOLT-4 leukemia,> 100 µM
same,TGI,OVCAR-4 ovarian,> 100 µM
same,TGI,KM20L2 colon,> 100 µM
same,TGI,RPMI-8226 leukemia,> 100 µM
same,TGI,SK-OV-3 ovarian,> 100 µM
same,TGI,SF-268 CNS,> 100 µM
same,TGI,ACHN renal,> 100 µM
same,TGI,TK-10 renal,> 100 µM
same,TGI,COLO 205 colon,> 100 µM
same,TGI,HCT-15 colon,> 100 µM
same,TGI,CAKI-1 renal,> 100 µM
same,TGI,UO-31 renal,> 100 µM
same,TGI,UACC-62 melanoma,> 100 µM
same,TGI,HL-60(TB) leukemia,> 100 µM
same,TGI,DMS 114 small cell lung,> 100 µM
same,TGI,CCRF-CEM leukemia,> 100 µM
same,TGI,KM12 colon,> 100 µM
same,TGI,OVCAR-8 ovarian,> 100 µM
same,TGI,UACC-257 melanoma,> 100 µM
same,TGI,OVCAR-3 ovarian,> 100 µM
same,TGI,SN12C renal,> 100 µM
same,TGI,IGROV1 ovarian,> 100 µM
same,TGI,DMS 273 small cell lung,> 100 µM
same,TGI,SNB-75 CNS,> 100 µM
same,TGI,HCC-2998 colon,> 100 µM
same,TGI,A549 NSCLC,> 100 µM
same,TGI,SNB-19 CNS,> 100 µM
same,TGI,NCI-H460 lung,> 100 µM
same,TGI,SK-MEL-5 melanoma,> 100 µM
same,TGI,SF-539 CNS,> 100 µM
same,TGI,HOP-92 NSCLC,> 100 µM
same,TGI,HT29 colon,> 100 µM
same,TGI,MALME-3M melanoma,> 100 µM
same,TGI,K-562 leukemia,> 100 µM
same,TGI,LOX IMVI melanoma,> 100 µM
same,TGI,SNB-78 CNS,> 100 µM
same,TGI,M19-MEL melanoma,> 100 µM
same,TGI,M14 melanoma,> 100 µM
same,TGI,DLD-1 colon,> 100 µM
same,TGI,A498 renal,> 100 µM
same,TGI,SF-295 CNS,> 100 µM
same,TGI,OVCAR-5 ovarian,> 100 µM
same,TGI,RXF 393 renal,> 100 µM
same,TGI,SW-620 colon,> 100 µM
same,TGI,786-0 renal,> 100 µM
COC(=O)C(C(=O)C(=O)Nc1c(Cl)cc([N+](=O)[O-])cc1Cl)c1csc(-n2nc(C3=CCCCC3)cc2-c2ccccc2)n1 (stereo not drawn),TGI,EKVX NSCLC,94.7 µM
same,TGI,SK-MEL-2 melanoma,> 100 µM
same,TGI,NCI-H522 lung,> 100 µM
same,TGI,NCI-H226 lung,> 100 µM
same,TGI,MOLT-4 leukemia,> 100 µM
same,TGI,OVCAR-4 ovarian,> 100 µM
same,TGI,KM20L2 colon,> 100 µM
same,TGI,RPMI-8226 leukemia,> 100 µM
same,TGI,SK-OV-3 ovarian,> 100 µM
same,TGI,SF-268 CNS,> 100 µM
same,TGI,ACHN renal,> 100 µM
same,TGI,TK-10 renal,> 100 µM
same,TGI,COLO 205 colon,> 100 µM
same,TGI,HCT-15 colon,> 100 µM
same,TGI,CAKI-1 renal,> 100 µM
same,TGI,LXFL 529 NSCLC,> 100 µM
same,TGI,UO-31 renal,> 100 µM
same,TGI,UACC-62 melanoma,> 100 µM
same,TGI,HL-60(TB) leukemia,> 100 µM
same,TGI,CCRF-CEM leukemia,> 100 µM
same,TGI,KM12 colon,> 100 µM
same,TGI,OVCAR-8 ovarian,> 100 µM
same,TGI,UACC-257 melanoma,> 100 µM
same,TGI,OVCAR-3 ovarian,> 100 µM
same,TGI,SN12C renal,> 100 µM
same,TGI,HOP-62 NSCLC,> 100 µM
same,TGI,DMS 273 small cell lung,> 100 µM
same,TGI,SNB-75 CNS,> 100 µM
same,TGI,HOP-18 NSCLC,> 100 µM
same,TGI,HCC-2998 colon,> 100 µM
same,TGI,A549 NSCLC,> 100 µM
same,TGI,SNB-19 CNS,> 100 µM
same,TGI,NCI-H460 lung,> 100 µM
same,TGI,RXF-631 renal,> 100 µM
same,TGI,SF-539 CNS,> 100 µM
same,TGI,HOP-92 NSCLC,77.7 µM
same,TGI,SR leukemia,78 µM
same,TGI,HT29 colon,> 100 µM
same,TGI,MALME-3M melanoma,> 100 µM
same,TGI,K-562 leukemia,> 100 µM
same,TGI,HCT-116 colon,> 100 µM
same,TGI,LOX IMVI melanoma,> 100 µM
same,TGI,SNB-78 CNS,> 100 µM
same,TGI,M19-MEL melanoma,> 100 µM
same,TGI,M14 melanoma,> 100 µM
same,TGI,U251 CNS,> 100 µM
same,TGI,DLD-1 colon,> 100 µM
same,TGI,A498 renal,> 100 µM
same,TGI,SF-295 CNS,> 100 µM
same,TGI,OVCAR-5 ovarian,> 100 µM
same,TGI,RXF 393 renal,> 100 µM
same,TGI,SW-620 colon,> 100 µM
same,TGI,786-0 renal,> 100 µM
